Reference: patent US20250152574A1 (BIOGEN MA INC., priority 2022, published 2025)

Molecular target: T1, EBP (Homo sapiens, UniProt Q15125)
T1 construct: HEK293T cells were utilized as the source of EBP enzyme; endogenous in cells; host or cells: HEK293T
Assay: EBP Functional Assay (EBP immunoaffinity LC-MS assay)
Type: biochemical
Conditions: HEK293T cells as source of EBP enzyme; substrate zymosterol-d5, 37° C. for 4 h; percent conversion to dehydrolathosterol-d5 by LC-APCI MRM MS
Procedure: The EBP immunoaffinity (IA) LC-MS assay measures the potency of small molecule inhibitors of EBP by quantifying their concentration-dependent changes in the enzyme's substrate and product using liquid chromatography atmospheric pressure chemical ionization multiple reaction monitoring mass spectrometry (LC-APCI MRM MS). HEK293T cells were utilized as the source of EBP enzyme. The enzyme was incubated with the small molecule inhibitors at variable concentrations for 30 min. Deuterated form of EBP substrate, zymosterol-d5 (Avanti Polar Lipids, Cat #700068P-1 mg), was then added and the plate was incubated at 37° C. for 4 h. Finally, the sterol isomers were extracted and injected to LC-APCI MRM MS. MRM transition used for the quantification for both zymosterol and […] (substrate and product of EBP enzymatic reaction, respectively) is 372.3-203.2, CE 30 and DP 80 in positive ion mode. Percent conversion of the zymosterol-d5 to dehydrolathosterol-d5 was used to derive IC50 curves. Tasin-1 (1′-[(4-Methoxyphenyl)sulfonyl]-4-methyl-1,4′-bipiperidine, CAS 792927-06-1) was used as the reference small molecule inhibitor.
Percent conversion versus the compound concentration data were fit to the following 4-parameter logistic model to generate IC50 curves: […]

T1 sequence (Q15125 whole entry): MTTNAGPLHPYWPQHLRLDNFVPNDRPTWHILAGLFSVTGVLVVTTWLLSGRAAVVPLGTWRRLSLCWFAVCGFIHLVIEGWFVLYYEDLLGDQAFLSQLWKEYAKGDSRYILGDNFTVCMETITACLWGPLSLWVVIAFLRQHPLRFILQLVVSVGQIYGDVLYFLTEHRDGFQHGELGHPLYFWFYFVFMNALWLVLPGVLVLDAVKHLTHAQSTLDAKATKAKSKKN

| Structure (SMILES) | IC50 |
| --- | --- |
| O=S(=O)(c1cc2cccnc2cc1F)N1CCC2(CCC(N3CCOCC3)C2)CC1 (stereo not drawn) [Example 31, 4-(8-((7-fluoroquinolin-6-yl)sulfonyl)-8-azaspiro[4.5]decan-2-yl)morpholine] | 100 to 250 nM |
| N#Cc1ccc(S(=O)(=O)N2CCC3(CCC(N4CC5(COC5)C4)C3)CC2)c(Cl)c1 (stereo not drawn) [Example 126, 4-((2-(2-oxa-6-azaspiro[3.3]heptan-6-yl)-8-azaspiro[4.5]decan-8-yl)sulfonyl)-3-chlorobenzonitrile] | 100 to 250 nM |
| N#Cc1ccc(Cl)c(S(=O)(=O)N2CCC3(CC2)CC(N2CC4(COC4)C2)CO3)c1 (stereo not drawn) [Example 64, 3-((3-(2-Oxa-6-azaspiro[3.3]heptan-6-yl)-1-oxa-8-azaspiro[4.5]decan-8-yl)sulfonyl)-4-chlorobenzonitrile] | 250 to 1500 nM |
| COCCN(C)C1COC2(CCN(S(=O)(=O)c3cc(C4CC4)nn3C)CC2)C1 (stereo not drawn) [Example 60, 8-((3-Cyclopropyl-1-methyl-1H-pyrazol-5-yl)sulfonyl)-N-(2-methoxyethyl)-N-methyl-1-oxa-8-azaspiro[4.5]decan-3-amine] | 250 to 1500 nM |
| Cc1ccc(S(=O)(=O)N2CCC3(CCC(N4CC5(COC5)C4)C3)CC2)cc1C#N (stereo not drawn) [Example 128, 5-((2-(2-oxa-6-azaspiro[3.3]heptan-6-yl)-8-azaspiro[4.5]decan-8-yl)sulfonyl)-2-methylbenzonitrile] | < 100 nM |
| N#Cc1ccc(F)c(S(=O)(=O)N2CCC3(CC2)CC(NC2CCC(F)(F)CC2)CO3)c1 (stereo not drawn) [Example 48, 3-((3-((4,4-Difluorocyclohexyl)amino)-1-oxa-8-azaspiro[4.5]decan-8-yl)sulfonyl)-4-fluorobenzonitrile] | 100 to 250 nM |
| O=S(=O)(c1cc(F)cc(F)c1)N1CCC2(CC1)C[C@@H](N1CC3(COC3)C1)CO2 (single isomer, unassigned) [Example 119b] | 100 to 250 nM |
| COCCN(C)C1COC2(CCN(S(=O)(=O)c3cc(C)cnc3OC)CC2)C1 (stereo not drawn) [Example 67, 8-((2-Methoxy-5-methylpyridin-3-yl)sulfonyl)-N-(2-methoxyethyl)-N-methyl-1-oxa-8-azaspiro[4.5]decan-3-amine] | 250 to 1500 nM |
| O=S(=O)(c1ccc(OC(F)F)cc1)N1CCC2(CC1)CC(N1CC3(CCOC3)C1)CO2 (stereo not drawn) [Example 69, 8-((4-(Difluoromethoxy)phenyl)sulfonyl)-3-(6-oxa-2-azaspiro[3.4]octan-2-yl)-1-oxa-8-azaspiro[4.5]decane] | 250 to 1500 nM |
| Cc1cc(C(F)(F)F)ccc1S(=O)(=O)N1CCC2(CC1)CC(N1CCOCC1)CO2 (stereo not drawn) [Example 17, 8-((2-Methyl-4-(trifluoromethyl)phenyl)sulfonyl)-3-morpholino-1-oxa-8-azaspiro[4.5]decane] | 250 to 1500 nM |
| Cc1occc1S(=O)(=O)N1CCC2(CCC(N3CC4(COC4)C3)C2)CC1 (stereo not drawn) [Example 105] | 250 to 1500 nM |
| O=S(=O)(c1ccc(OC(F)F)cc1)N1CCC2(CC1)CC(N1CCC3(CCOC3)C1)CO2 (stereo not drawn) [Example 70, 8-((4-(Difluoromethoxy)phenyl)sulfonyl)-3-(2-oxa-7-azaspiro[4.4]nonan-7-yl)-1-oxa-8-azaspiro[4.5]decane] | 250 to 1500 nM |
| COCCN(C)C1CCC2(CCN(S(=O)(=O)c3cc(C)cnc3OC)CC2)C1 (stereo not drawn) [Example 40] | 100 to 250 nM |
| Cn1nc(C(F)(F)F)cc1S(=O)(=O)N1CCC2(CC1)CC(N1CCOCC1)CO2 (single isomer, unassigned) [Example 7, (R)- or (S)-8-((1-methyl-3-(trifluoromethyl)-1H-pyrazol-5-yl)sulfonyl)-3-morpholino-1-oxa-8-azaspiro[4.5]decane] | 250 to 1500 nM |
| O=S(=O)(c1ccc2ccoc2c1)N1CCC2(CCC(N3CC4(COC4)C3)C2)CC1 (stereo not drawn) [Example 135, 6-(8-(benzofuran-6-ylsulfonyl)-8-azaspiro[4.5]decan-2-yl)-2-oxa-6-azaspiro[3.3]heptane] | 100 to 250 nM |
| COc1ncc(S(=O)(=O)N2CCC3(CCC(N4CC5(COC5)C4)C3)CC2)cc1Cl (stereo not drawn) [Example 106] | < 100 nM |
| N#Cc1cc(F)cc(S(=O)(=O)N2CCC3(CC[C@H](N4CC5(COC5)C4)C3)CC2)c1 (single isomer, unassigned) [Example 85b] | < 100 nM |
| N#Cc1cccc(S(=O)(=O)N2CCC3(CCC(N4CC5(COC5)C4)C3)CC2)c1 (stereo not drawn) [Example 11] | 100 to 250 nM |
| COc1ccc(S(=O)(=O)N2CCC3(CCC(N4CC5(COC5)C4)C3)CC2)cc1F (stereo not drawn) [Example 10] | 100 to 250 nM |
| Cc1cc(C)c(S(=O)(=O)N2CCC3(CC2)CC(N2CCC4(CCOC4)C2)CO3)cn1 (stereo not drawn) [Example 28, 8-((4,6-Dimethylpyridin-3-yl)sulfonyl)-3-(2-oxa-7-azaspiro[4.4]nonan-7-yl)-1-oxa-8-azaspiro[4.5]decane] | 250 to 1500 nM |
| O=S(=O)(c1ccc(OC(F)F)cc1)N1CCC2(CC1)CC(N1CC3(CCCOC3)C1)CO2 (stereo not drawn) [Example 143, 8-((4-(difluoromethoxy)phenyl)sulfonyl)-3-(6-oxa-2-azaspiro[3.5]nonan-2-yl)-1-oxa-8-azaspiro[4.5]decane] | 100 to 250 nM |
| COc1cc(S(=O)(=O)N2CCC3(CCC(N4CCOCC4)C3)CC2)n(C)n1 (stereo not drawn) [Example 26, 4-(8-((3-Methoxy-1-methyl-1H-pyrazol-5-yl)sulfonyl)-8-azaspiro[4.5]decan-2-yl)morpholine] | < 100 nM |
| Cn1nc(C(F)(F)F)cc1S(=O)(=O)N1CCC2(CC1)CC(NC1CC3(COC3)C1)CO2 (stereo not drawn) [Example 139, 8-((1-methyl-3-(trifluoromethyl)-1H-pyrazol-5-yl)sulfonyl)-N-(2-oxaspiro[3.3]heptan-6-yl)-1-oxa-8-azaspiro[4.5]decan-3-amine] | 100 to 250 nM |
| Cn1nc(C2CC2)cc1S(=O)(=O)N1CCC2(CC1)C[C@@H](N1CC3(COC3)C1)CO2 (single isomer, unassigned) [Example 57a] | 250 to 1500 nM |

Further lines, results first:

| IC50 | Structure (SMILES) |
| --- | --- |
| 100 to 250 nM | N#Cc1cc(F)cc(S(=O)(=O)N2CCC3(CC[C@@H](N4CC5(COC5)C4)C3)CC2)c1 (single isomer, unassigned) [Example 85a] |
| 100 to 250 nM | Cc1cc(S(=O)(=O)N2CCC3(CCC(N4CCC(C)(O)CC4)C3)CC2)n(C)n1 (stereo not drawn) [Example 84, 1-(8-((1,3-dimethyl-1H-pyrazol-5-yl)sulfonyl)-8-azaspiro[4.5]decan-2-yl)-4-methylpiperidin-4-ol] |
| 100 to 250 nM | O=S(=O)(c1ccc(OC(F)F)cc1)N1CCC2(CCC(N3CCOCC3)C2)CC1 (stereo not drawn) [Example 23, 4-(8-((4-(Difluoromethoxy)phenyl)sulfonyl)-8-azaspiro[4.5]decan-2-yl)morpholine] |
| < 100 nM | COc1nccc(S(=O)(=O)N2CCC3(CCC(N4CCOCC4)C3)CC2)c1F (stereo not drawn) [Example 33, 4-(8-((3-Fluoro-2-methoxypyridin-4-yl)sulfonyl)-8-azaspiro[4.5]decan-2-yl)morpholine] |
| 100 to 250 nM | Cc1cnc(S(=O)(=O)N2CCC3(CCC(N4CCOCC4)C3)CC2)c(C)c1 (stereo not drawn) [Example 25, 4-(8-((3,5-Dimethylpyridin-2-yl)sulfonyl)-8-azaspiro[4.5]decan-2-yl)morpholine] |
| < 100 nM | O=S(=O)(c1ccc(OC(F)F)cc1)N1CCC2(CC[C@@H](N3C[C@H]4C[C@@H]3CO4)C2)CC1 (single isomer, unassigned) [Example 86a] |
| 100 to 250 nM | O=S(=O)(c1ccc2ncc(F)cc2c1)N1CCC2(CCC(N3CC4(COC4)C3)C2)CC1 (stereo not drawn) [Example 133, 6-(8-((3-fluoroquinolin-6-yl)sulfonyl)-8-azaspiro[4.5]decan-2-yl)-2-oxa-6-azaspiro[3.3]heptane] |
| 250 to 1500 nM | Cc1cc(S(=O)(=O)N2CCC3(CCC(N4C[C@@H]5C[C@H]4CO5)C3)CC2)n(C)n1 (stereo partly drawn) [Example 87, (1S,4S)-5-(8-((1,3-dimethyl-1H-pyrazol-5-yl)sulfonyl)-8-azaspiro[4.5]decan-2-yl)-2-oxa-5-azabicyclo[2.2.1]heptane] |
| < 100 nM | O=S(=O)(c1ccc2c(c1)OCCO2)N1CCC2(CCC(N3CC4(COC4)C3)C2)CC1 (stereo not drawn) [Example 107] |
| < 100 nM | COc1cc(S(=O)(=O)N2CCC3(CCC(N4CC5(COC5)C4)C3)CC2)n(C)n1 (stereo not drawn) [Example 124, 6-(8-((3-methoxy-1-methyl-1H-pyrazol-5-yl)sulfonyl)-8-azaspiro[4.5]decan-2-yl)-2-oxa-6-azaspiro[3.3]heptane] |
| 100 to 250 nM | CC(C)Oc1ccc(S(=O)(=O)N2CCC3(CCC(N4CC5(COC5)C4)C3)CC2)cn1 (stereo not drawn) [Example 130, 6-(8-((6-isopropoxypyridin-3-yl)sulfonyl)-8-azaspiro[4.5]decan-2-yl)-2-oxa-6-azaspiro[3.3]heptane] |
| 100 to 250 nM | Cc1cc(S(=O)(=O)N2CCC3(CCC(N4CC5(COC5)C4)C3)CC2)n(C)n1 (stereo not drawn) [Example 142, 6-(8-((1,3-dimethyl-1H-pyrazol-5-yl)sulfonyl)-8-azaspiro[4.5]decan-2-yl)-2-oxa-6-azaspiro[3.3]heptane] |
| 250 to 1500 nM | O=S(=O)(c1ccc(OC2CC2)cn1)N1CCC2(CCC(N3CCOCC3)C2)CC1 (stereo not drawn) [Example 32, 4-(8-((5-Cyclopropoxypyridin-2-yl)sulfonyl)-8-azaspiro[4.5]decan-2-yl)morpholine] |
| < 100 nM | Cc1nc(Cl)ccc1S(=O)(=O)N1CCC2(CC1)CC(N1C[C@H]3C[C@@H]1CO3)C2 [Example 94, (1R,4R)-5-(7-((6-chloro-2-methylpyridin-3-yl)sulfonyl)-7-azaspiro[3.5]nonan-2-yl)-2-oxa-5-azabicyclo[2.2.1]heptane] |
| < 100 nM | N#Cc1cccc(S(=O)(=O)N2CCC3(CCC(N4CC5(COC5)C4)C3)CC2)c1F (stereo not drawn) [Example 104] |
